Test: Hydrodynamic size and potential analysis
Format: physicochemical
Method: The hydrodynamic size distribution and electrical potential of nanomedicines including AuS-TA were evaluated using a Litesizer 500 (Anton Paar) according to the manufacturer's instructions. AuS and TA non-covalently attached to AuS were quantified by determining absorbance using UV-vis spectrophotometry (Biochrom). […] Therefore, the TA amount of Edu-MSCs-AuS-TA was measured based on the AuS-TA ratio of AuS and TA. The concentration of each solution was extrapolated using the linear standard curve for AuS and TA. The morphology, crystallinity, and EDS mapping of AuS-PEG and AuS-TA complexes were analyzed using TEM (F30, Tecnai, USA) and STEM (JEM-ARM200F, JEOL, Japan).

SMILES: C[C@]12C=CC(=O)C=C1CC[C@H]1[C@@H]3C[C@@H](O)[C@](O)(C(=O)CO)[C@@]3(C)C[C@H](O)[C@@]12F [TA, triamcinolone]
- hydrodynamic size: 77 nm
- surface charge: close to neutral

— patent US20250195661A1, “NIR-responsive stem cell-derived inflammation attenuating complex and use thereof” (priority 2023, published 2025)
